Values of other authors in US4693997A, “Novel pharmaceutical composition” (priority 1982, dated 1987).
Structures can show the parent of a compound that is named as a salt. Where two headings read alike, the source gives them in different places.

Tested on: mucosa in the oesophagus
Conditions: oral tablets
[1] = compared with emepronium bromide tablets

Row | SMILES | oesophageal irritation and ulceration [1] | oesophageal irritation and ulceration (Bennett, Lancet 1977, 1, 810)
1 | CC1c2cccc(O)c2C(=O)C2=C(O)C3(O)C(=O)C(C(N)=O)=C(O)C(N(C)C)C3C(O)C21 (stereo not drawn) [doxycycline hydrochloride] | same type of irritation and ulceration | 
2 | CC[N+](C)(C)C(C)CC(c1ccccc1)c1ccccc1 (stereo not drawn) [emepronium bromide] |  | severe irritation and ulceration in the oesophagus
3 | CC(C)NCC(O)COc1cccc2ccccc12 (stereo not drawn) [propranolol hydrochloride] | same type of irritation and ulceration | 
